Measured values: patent US12582721B2, “Molybdenum-based feed supplement for bees” (UNIVERSITE DE VERSAILLES—SAINT-QUENTIN-EN-YVELINES, priority 2020, dated 2026)

Key:
[1] = test system: families of European domestic bees; experiment: 1st test in hives: morpho-productive characters; assay type: in vivo, Apis mellifera carpatica; details: for Power of the bee family / Prolificity of the queen / Quantity of honey at the first harvest / Quantity of honey at the first harvest, change versus batch I: overall dose 2 mg per colony; for Power of the bee family / Prolificity of the queen / Quantity of honey at the first harvest: spring feeding, 10 hives; for Quantity of honey at the first harvest, change versus batch I: value in brackets; for Effects on the prolificity of the queen and the amount of honey collected compared to PPh4-Mo2O4-EDTA: 1st test, 2 mg per colony
Description: Biological field tests were performed on families of European domestic bees of the species Apis mellifera […] experimental apiary located in the […] forestry district (Republic of Moldova). Feeding with the complex of the invention took place in spring. The biological tests were monitored up to the month of September. To administer the compounds to the bees, a very small amount of bioactive substance was added to two types of sugary feeding products for bees: candy in the form of a paste (70% sucrose, 30% honey) or syrup (50% sucrose, 50% water). The bees were fed by adding the candy/syrup to the feeder located in the inner upper part of the hive. The volume of syrup was adjusted based on the number of bee frames at the initial time, more precisely 200 g of candy per frame and 100 mL of syrup per frame, that is 2 kg of candy and 1 L of syrup per hive of 10 frames. For the first feeding step, candy in the form of a paste was only given once. […] From the start of the test to the end (after the second harvest), all the bees were monitored for several key morpho-producing parameters that reflect the development level of the colony and the vital aspects of the bees. The parameters studied are: the prolificity of the queen (fertility), the power of the colonies, the production of honey and the production of wax. These parameters were monitored in line with the zootechnical standards concerning the assessment of bee families, breeding and certification of beekeeping parental material approved by government decision No. 306 dated Apr. 28, 2011 of the Republic of Moldova. The production of honey (in kg) was determined for each family of bees by adding the amount of honey produced (honey from supers), extracted during the harvest season, to the amount of honey built up in the honeycomb (brood chamber) and left as food for the bees for the winter period (brood honey). The amount of honey produced will be determined for each family, for each extraction, by weighing the frames/honeycomb before and after extraction (with an accuracy of 0.1 kg), the weight difference being the quantity of honey produced that was extracted. The amount of honey left in the honeycomb to feed the bees was determined at the autumn visit (September), by weighing the honey frames and deducting (from their total weight) the total weight of the standard honeycomb frames; for […] type frames (435×300 mm)-0.6 kg, for Langstroth frames (435×230 mm)-0.5 kg. The power of the bee colony represents the number of bees present in the honeycomb at the time of the assessment. The assessment is performed three times per year: at the spring visit (March-April), at the end of spring (20-31 May) and at the visit in autumn (September). After these three assessments, the average power of the bee family is determined. The amount of bees (kg) is determined by multiplying the number of intervals between the frames, uniformly occupied by the bees, by the coefficient 0.25 for the standard […] frame (435×300 mm) and by 0.2 for the standard Langstroth frame (435×230 mm). The prolificity of the queen (eggs/24 hours) is determined during the visit at the end of the spring (20-31 May) by dividing the number of cells with the brood by 12 (duration of development of the brood, days), the number of eggs laid in 24 hours. The number of cells in the honeycomb is determined using the Netz frame by measuring the number of squares (5×5 cm) occupied by the brood, which is multiplied by 100, to give the total number of cells with the brood covered. The molecules tested, their concentration in solution and their annual overall doses are listed below: • 1. […] The concentration of the complex in the syrup: 1.5×10^-7 mol/L. Overall and annual product dose: 2 mg of complex per colony • 2. […] The concentration of the complex in syrup: 3.0×10^-7 mol/L. Overall and annual product dose: 2 mg of complex per colony • 3. […] Overall and annual product dose: 2 mg of complex per colony • 4. […]

Varroa destructor = experiment: 2nd test in the hives: degree of larvae infestation with Varroa; assay type: in vivo; details: for Degree of larvae infestation with Varroa: 100 = larvae infestation rate of 28.2%; for Degree of larvae infestation with Varroa, change versus batch I: value in brackets
Description: The 2nd test was performed in the same apiary the following year. Feeding with the complex of the invention took place in spring. The biological tests were monitored up to the month of September. The molecules tested, their concentration in solution and their annual overall doses are listed below: • 1. […] The concentration of the complex in syrup: 1.5×10^-7 mol/L. Overall product dose: 2 mg/colony • 2. […] Overall complex dose: 6 mg/colony • 4. LiCH3COO·H2O for comparison, abbreviated as Li-Ac • The feeding is carried out with 2000 g of candy containing 0.8 mg of product then 6 to 7 L of syrup containing 0.2 mg/L of product. The concentration of product in the syrup: 2.36×10^-6 mol/L that is 1.67×10^-5 g/L. Overall product dose: 2 mg/colony [table]

[2] = test system: human cervical epithelial cells of the HeLa line; experiment: Resazurin cell proliferation test, HeLa cells; assay type: cell-based; details: cervical cancer cells; IC50 equal to and greater than 100 μM considered no activity
Description: (§1) For cell culture, human cervical epithelial cells of the HeLa line, human epithelial pancreatic adenocarcinoma cells of the BxPC-3 line and healthy Madin-Darby canine kidney epithelial cells of the MDCK line were used in this study. The Resazurin cell proliferation test was applied according to the literature (S. Anoopkumar-Dukie, J. B. Carey, T. Conere, E. O'Sullivan, F. N. van Pelt, A. Allshire, Br J Radiol 2005, 78, 945, DOI: 10.1259/bjr/54004230). As an indicator of the effectiveness of the experimental compounds on cell proliferation, the median inhibitory concentration (IC50) was used. The lower the IC50 value, the higher the activity (in this case, the cytotoxicity).
Five formula I complexes were tested in this study in comparison to two reference anti-cancer compounds (“Cisplatin” and Doxorubicin complex).

[3] = test system: HeLa, BxPC-3 and MDCK cells; details: BxPc-3 and HeLa
Description: as §1

bee families = details: feeding method of MD4438; cited from earlier work

Structure (SMILES) | Power of the bee family [1] | Prolificity of the queen [1] | Quantity of honey at the first harvest [1] | Quantity of honey at the first harvest, change versus batch I [1] | Degree of larvae infestation with Varroa (Varroa destructor; overall dose 2 mg/hive) | Degree of larvae infestation with Varroa, change versus batch I (Varroa destructor; overall dose 2 mg/hive) [%] | IC50, HeLa [2] | Effects on the prolificity of the queen and the amount of honey collected compared to PPh4-Mo2O4-EDTA [1] | Degree of larvae infestation with Varroa (Varroa destructor; overall dose 6 mg/hive) | Degree of larvae infestation with Varroa, change versus batch I (Varroa destructor; overall dose 6 mg/hive) [%] | Cytotoxicity, conclusion from Table 1 [3] | IC50 [2] [µM] | Effect on queens and bee families (bee families)
CC(=O)[O-].[Li+] [Li—Ac, LiCH3COO·H2O, reference compound] | 98.3 % relative to batch I | 108.8 % relative to batch I | 122.9 % relative to batch I | +22.9% | 64.9 % relative to batch I | −35.1 |  |  |  |  |  |  | 
O.O.O.O.O.O.O=C([O-])CN(CCN(CC(=O)[O-])CC(=O)[O-])CC(=O)[O-].[Li+].[Li+].[O]=[Mo+]12[O][Mo+]1(=[O])[O]2 [Li—Mo2O4-EDTA, Li2[Mo2O4 (EDTA)]·6H2O] | 103.3 % relative to batch I | 111.7 % relative to batch I | 143.1 % relative to batch I | +43.1% | 42.6 % relative to batch I | −57.4 | Inactive | higher effects | 18.4 % relative to batch I | −81.6 | no cytotoxicity |  | 
O.O.O.O.O.O=C([O-])CN(CCN(CC(=O)[O-])CC(=O)[O-])CC(=O)[O-].[Na+].[Na+].[O]=[Mo+]12[O][Mo+]1(=[O])[O]2 [Na—Mo2O4-EDTA, Na2[Mo2O4 (EDTA)]·5H2O] | 101.2 % relative to batch I | 113.3 % relative to batch I | 149.9 % relative to batch I | +49.9% |  |  | Inactive | higher effects |  |  | no cytotoxicity |  | 
O=C([O-])CN(CCN(CC(=O)[O-])CC(=O)[O-])CC(=O)[O-].[O]=[Mo+]12[O][Mo+]1(=[O])[O]2.c1ccc([P+](c2ccccc2)(c2ccccc2)c2ccccc2)cc1.c1ccc([P+](c2ccccc2)(c2ccccc2)c2ccccc2)cc1 [PPh4—Mo2O4-EDTA, (PPh4)2[Mo2O4 (EDTA)]·2.5H2O] | 102.1 % relative to batch I | 107.1 % relative to batch I | 113.3 % relative to batch I | +13.3% | 56.0 % relative to batch I | −44.0 |  |  |  |  |  | ≥ 100 | stimulating the oogenesis functions of the queens, increasing the amount of larvae, improving the quantitative development of the bee families and increasing productivity thereof
